Data on 16 molecules can be found in patent publication US20240252506A1 (Hoffmann-La Roche Inc., priority 2021, published 2024).

Values after ≈ are worked out from the molar mass of the structure shown.

One assay deals with Escherichia coli ATCC 25922. The assay is described as follows: Minimal Inhibitory Concentration (MIC) determination, broth microdilution (CLSI M07-A10). Particulars: Escherichia coli, ATCC25922, strain Escherichia coli ATCC 25922, 18-24 hours at 35±2° C., lowest concentration for complete growth inhibition (no visible growth), read-out: Escherichia coli growth inhibition MIC. The assay is classed as cell-based. Put shortly: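 MIC read visually as the lowest concentration with complete growth inhibition after 18-24 h at 35±2° C, ambient air. Method follows CLSI M07-A10 broth microdilution, two-fold compound series, inoculum standardized to 0.5 McFarland then diluted 1:200.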
What is called MIC is the lowest concentration that inhibits growth of the organism. With `C[C@H](C(=O)NCCn1nnc2c(F)c3c(c(F)c21)CC(CN1CCC2(CC1)CN(c1cnc4c(n1)NC(=O)CO4)C(=O)O2)C3)N(C)C` (stereo partly drawn) [Example 149, (2R)—N-[2-[4,8-Difluoro-6-[[2-oxo-3-(3-oxo-4H-pyrazino[2,3-b][1,4]oxazin-6-yl)-1-oxa-3,8-diazaspiro[4.5]decan-8-yl]methyl]-6,7-dihydro-5H-cyclopenta[f]benzotriazol-1-yl]ethyl]-2-(dimethylamino)propanamide], the MIC was determined as 1 µg/mL (≈ 1.53 µM).
For `C[C@H](C(=O)NCCn1nc2c(F)c3c(c(F)c2n1)CC(CN1CCC2(CC1)CN(c1cnc4c(n1)NC(=O)CO4)C(=O)O2)C3)N(C)C` [Example 150, (2R)-N[2-[4,8-difluoro-6-[[2-oxo-3-(3-oxo-4H-pyrazino[2,3-b][1,4]oxazin-6-yl)-1-oxa-3,8-diazaspiro[4.5]decan-8-yl]methyl]-6,7-dihydro-5H-cyclopenta[f]benzotriazol-2-yl]ethyl]-2-(dimethylamino)propanamide], the minimal inhibitory concentration (MIC) is 1 µg/mL (≈ 1.53 µM).
With `C[C@H](C(=O)NCc1nc2cc3c(c(F)c2[nH]1)CC(CN1CCC2(CC1)CN(c1cnc4c(n1)NC(=O)CO4)C(=O)O2)C3)N(C)C` (stereo partly shown) [Example 151], the MIC is 0.5 µg/mL (≈ 0.804 µM).
On the same count and under the same terms, in the case of `CC(=O)N(C)CCn1nc2c(F)c3c(c(F)c2n1)CC(CN1CCC2(CC1)CN(c1cnc4c(n1)NC(=O)CO4)C(=O)O2)C3` [Example 154, N-[2-[4,8-difluoro-6-[[2-oxo-3-(3-oxo-4H-pyrazino[2,3-b][1,4]oxazin-6-yl)-1-oxa-3,8-diazaspiro[4.5]decan-8-yl]methyl]-6,7-dihydro-5H-cyclopenta[f]benzotriazol-2-yl]ethyl]-N-methyl-acetamide] it was 2 µg/mL (≈ 3.27 µM).
With `CN(C)CC(=O)N(C)CCn1nc2c(F)c3c(c(F)c2n1)CC(CN1CCC2(CC1)CN(c1cnc4c(n1)NC(=O)CO4)C(=O)O2)C3` [Example 155, N-[2-[4,8-difluoro-6-[[2-oxo-3-(3-oxo-4H-pyrazino[2,3-b][1,4]oxazin-6-yl)-1-oxa-3,8-diazaspiro[4.5]decan-8-yl]methyl]-6,7-dihydro-5H-cyclopenta[f]benzotriazol-2-yl]ethyl]-2-(dimethylamino)-N-methyl-acetamide], the MIC came to 1 µg/mL (≈ 1.53 µM).
On to `O=C1COc2ncc(N3CC4(CCN(CC5Cc6c(c(F)c7nn(CCNC(=O)[C@H]8CCCN8)nc7c6F)C5)CC4)OC3=O)nc2N1` [Example 158, (2R)—N-[2-[4,8-Difluoro-6-[[2-oxo-3-(3-oxo-4H-pyrazino[2,3-b][1,4]oxazin-6-yl)-1-oxa-3,8-diazaspiro[4.5]decan-8-yl]methyl]-6,7-dihydro-5H-cyclopenta[f]benzotriazol-2-yl]ethyl]pyrrolidine-2-carboxamide], for which the MIC was found to be 0.25 µg/mL (≈ 0.383 µM).
For `CNCC(=O)NCCn1nc2c(F)c3c(c(F)c2n1)CC(CN1CCC2(CC1)CN(c1cnc4c(n1)NC(=O)CO4)C(=O)O2)C3` [Example 159, N-[2-[4,8-difluoro-6-[[2-oxo-3-(3-oxo-4H-pyrazino[2,3-b][1,4]oxazin-6-yl)-1-oxa-3,8-diazaspiro[4.5]decan-8-yl]methyl]-6,7-dihydro-5H-cyclopenta[f]benzotriazol-2-yl]ethyl]-2-(methylamino)acetamide], the MIC is 0.25 µg/mL (≈ 0.399 µM).
Same read-out and setting: in the case of `CNCC(=O)NCc1nc2cc3c(c(F)c2[nH]1)CC(CN1CCC2(CC1)CN(c1cnc4c(n1)NC(=O)CO4)C(=O)O2)C3.O=C(O)C(F)(F)F` (stereo not shown) [Example 160, N-[[8-fluoro-6-[[2-oxo-3-(3-oxo-4H-pyrazino[2,3-b][1,4]oxazin-6-yl)-1-oxa-3,8-diazaspiro[4.5]decan-8-yl]methyl]-1,5,6,7-tetrahydrocyclopenta[f]benzimidazol-2-yl]methyl]-2-(methylamino)acetamide; 2,2,2-trifluoroacetic acid] it was 0.5 µg/mL; in that of `O=C(O)C(F)(F)F.O=C1COc2ncc(N3CC4(CCN(CC5Cc6cc7nc(CNC(=O)[C@H]8CCCN8)[nH]c7c(F)c6C5)CC4)OC3=O)nc2N1` (stereo partly drawn) [Example 161, (2R)-N-[[8-fluoro-6-[[2-oxo-3-(3-oxo-4H-pyrazino[2,3-b][1,4]oxazin-6-yl)-1-oxa-3,8-diazaspiro[4.5]decan-8-yl]methyl]-1,5,6,7-tetrahydrocyclopenta[f]benzimidazol-2-yl]methyl]pyrrolidine-2-carboxamide; 2,2,2-trifluoroacetic acid], 0.25 µg/mL; in that of `O=C1COc2ncc(N3CC4(CCN(CC5Cc6c(c(F)c7c(nnn7CCNC(=O)[C@H]7CCCN7)c6F)C5)CC4)OC3=O)nc2N1` (stereo partly drawn) [Example 162, (2R)-N-[2-[4,8-difluoro-6-[[2-oxo-3-(3-oxo-4H-pyrazino[2,3-b][1,4]oxazin-6-yl)-1-oxa-3,8-diazaspiro[4.5]decan-8-yl]methyl]-6,7-dihydro-5H-cyclopenta[f]benzotriazol-1-yl]ethyl]pyrrolidine-2-carboxamide], 1 µg/mL (≈ 1.53 µM).
Regarding `O=C1COc2ncc(N3CC4(CCN(CC5Cc6c(c(F)c7nn(CCNC(=O)[C@H]8C[C@H](O)CN8)nc7c6F)C5)CC4)OC3=O)nc2N1` [Example 163, (2R,4S)-N-[2-[4,8-difluoro-6-[[2-oxo-3-(3-oxo-4H-pyrazino[2,3-b][1,4]oxazin-6-yl)-1-oxa-3,8-diazaspiro[4.5]decan-8-yl]methyl]-6,7-dihydro-5H-cyclopenta[f]benzotriazol-2-yl]ethyl]-4-hydroxy-pyrrolidine-2-carboxamide], the MIC was 0.5 µg/mL (≈ 0.748 µM).
For `O=C1COc2ncc(N3CC4(CCN(CC5Cc6c(c(F)c7c(nnn7CCNC(=O)[C@H]7C[C@H](O)CN7)c6F)C5)CC4)OC3=O)nc2N1` (stereo partly drawn) [Example 164, (2R,4S)-N-[2-[4,8-difluoro-6-[[2-oxo-3-(3-oxo-4H-pyrazino[2,3-b][1,4]oxazin-6-yl)-1-oxa-3,8-diazaspiro[4.5]decan-8-yl]methyl]-6,7-dihydro-5H-cyclopenta[f]benzotriazol-1-yl]ethyl]-4-hydroxy-pyrrolidine-2-carboxamide], the MIC was found to be 2 µg/mL (≈ 2.99 µM).
Turning to `CN(CCn1nc2c(F)c3c(c(F)c2n1)CC(CN1CCC2(CC1)CN(c1cnc4c(n1)NC(=O)CO4)C(=O)O2)C3)C(=O)CN.O=CO` [Example 165, 2-Amino-N-[2-[4,8-difluoro-6-[[2-oxo-3-(3-oxo-4H-pyrazino[2,3-b][1,4]oxazin-6-yl)-1-oxa-3,8-diazaspiro[4.5]decan-8-yl]methyl]-6,7-dihydro-5H-cyclopenta[f]benzotriazol-2-yl]ethyl]-N-methyl-acetamide;formic acid], the MIC is 0.5 µg/mL.
On the same count and under the same terms, in the case of `CN(C)CC(=O)NCCn1nnc2c(F)c3c(c(F)c21)CC(CN1CCC2(CC1)CN(c1cnc4c(n1)NC(=O)CO4)C(=O)O2)C3` (stereo not shown) [Example 168, N-[2-[4,8-difluoro-6-[[2-oxo-3-(3-oxo-4H-pyrazino[2,3-b][1,4]oxazin-6-yl)-1-oxa-3,8-diazaspiro[4.5]decan-8-yl]methyl]-6,7-dihydro-5H-cyclopenta[f]benzotriazol-1-yl]ethyl]-2-(dimethylamino)acetamide] it was 0.5 µg/mL (≈ 0.78 µM).
For `CN[C@H](C)C(=O)NCc1nc2cc3c(c(F)c2o1)CC(CN1CCC2(CC1)CN(c1cnc4c(n1)NC(=O)CO4)C(=O)O2)C3` (stereo partly drawn) [Example 169, (2R)—N-[[8-Fluoro-6-[[2-oxo-3-(3-oxo-4H-pyrazino[2,3-b][1,4]oxazin-6-yl)-1-oxa-3,8-diazaspiro[4.5]decan-8-yl]methyl]-6,7-dihydro-5H-cyclopenta[f][1,3]benzoxazol-2-yl]methyl]-2-(methylamino)propanamide], the MIC was determined as 1 µg/mL (≈ 1.64 µM).

The assay is the same for the next values; noted with them: strain Escherichia coli ATCC 25922, 18-24 hours at 35±2° C., lowest concentration for complete growth inhibition (no visible growth).
Regarding `O=C1COc2ccc(N3CC4(CCN(CC5Cc6cc7nc([C@@H]8C[C@@H](O)CN8)oc7c(F)c6C5)CC4)OC3=O)nc2N1` (stereo partly drawn) [Example 148, 6-[8-[[8-Fluoro-2-[(2S,4R)-4-hydroxypyrrolidin-2-yl]-6,7-dihydro-5H-cyclopenta[f][1,3]benzoxazol-6-yl]methyl]-2-oxo-1-oxa-3,8-diazaspiro[4.5]decan-3-yl]-4H-pyrido[3,2-b][1,4]oxazin-3-one], the “Escherichia coli growth inhibition MIC” value is 1 µg/mL.
